For one assay, the target named is CDK2-Cyclin A (Homo sapiens, UniProt P24941). The assay is described as follows: kinase profiling panel. Type of assay: biochemical. The settings on record: read-out: % Activity Remaining. An excerpt:
(§1) Protein kinase profiling against a Dundee panel of 140 protein kinases was undertaken at the International Centre for Protein Kinase Profiling. The result for each kinase was presented as a mean kinase activity of the reaction taken in triplicate relative to a control sample treated with DMSO. Assay conditions and abbreviations are available at http://www.kinase-screen.mrc.ac.uk.

The next assay deals with p38 alpha MAPK (Homo sapiens, UniProt Q16539). Put plainly: kinase profiling panel. It counts as biochemical. The settings on record: read-out: % Activity Remaining.
Chain of p38 alpha MAPK (Q16539 whole entry): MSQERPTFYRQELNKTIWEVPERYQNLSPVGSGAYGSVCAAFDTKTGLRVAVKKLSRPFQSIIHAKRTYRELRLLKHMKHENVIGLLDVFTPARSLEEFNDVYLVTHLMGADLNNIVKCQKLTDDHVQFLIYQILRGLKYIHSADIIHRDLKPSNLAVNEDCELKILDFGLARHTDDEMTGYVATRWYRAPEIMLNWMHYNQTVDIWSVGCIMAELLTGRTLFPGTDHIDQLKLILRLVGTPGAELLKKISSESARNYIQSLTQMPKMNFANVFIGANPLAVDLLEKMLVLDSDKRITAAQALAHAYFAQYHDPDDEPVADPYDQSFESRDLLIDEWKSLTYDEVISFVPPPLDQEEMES
Text: as §1

The next assay deals with OSR1 (Homo sapiens, UniProt O95747). Put plainly: kinase profiling panel. It counts as biochemical. The settings on record: read-out: % Activity Remaining.
Chain of OSR1 (O95747 whole entry): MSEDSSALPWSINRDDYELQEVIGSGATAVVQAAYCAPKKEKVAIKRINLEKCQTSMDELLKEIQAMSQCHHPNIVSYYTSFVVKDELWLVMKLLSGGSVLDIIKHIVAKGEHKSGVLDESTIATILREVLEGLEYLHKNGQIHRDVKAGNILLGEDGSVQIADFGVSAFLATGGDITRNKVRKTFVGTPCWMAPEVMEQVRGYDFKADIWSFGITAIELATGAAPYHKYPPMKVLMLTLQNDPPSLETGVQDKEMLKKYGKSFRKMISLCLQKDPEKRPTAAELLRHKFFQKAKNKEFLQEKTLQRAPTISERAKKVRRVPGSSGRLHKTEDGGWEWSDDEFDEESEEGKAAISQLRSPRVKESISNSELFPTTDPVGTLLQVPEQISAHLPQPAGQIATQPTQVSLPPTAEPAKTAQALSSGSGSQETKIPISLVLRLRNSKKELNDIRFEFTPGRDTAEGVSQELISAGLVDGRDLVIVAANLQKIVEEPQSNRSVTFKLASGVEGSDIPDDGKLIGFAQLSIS
Text: as §1

Assay [1] relates to phosphorylation of NDRG1 at Thr346. The assay is described as follows: NDRG1 phosphorylation in HEK293 cells, immunoblot. It counts as cell-based. The settings on record: HEK293, 8 h; for pNDRG1 phosphorylation: basal, no inhibition of Akt. Here is the method:
Figure 3 Characterization of cellular activities of SGK3-PROTAC1 and cisSGK3-PROTAC1. (A) HEK293 cells were first treated for 8 h with 0.03–3 μM SGK3-PROTAC1 and cisSGK3-PROTAC1. One hour before lysis, cells were treated with 3 μM AZD5363. Lysates were subjected to immunoblot analysis with the indicated antibodies. […] Lysates were subjected to immunoblot analysis with the indicated antibodies. (C) HEK293 cells were treated for up to 48 h with SGK3-PROTAC1 (0.3 μM), and lysates were analyzed by immunoblot analysis using the indicated antibodies. (D) HEK293 cells were treated for 24 h with SGK3-PROTAC1. Cells were washed three times with DMEM to wash out the compound, and recovery of SGK3 expression protein was analyzed by immunoblot analysis. (E–G) As in A except that CAMA-1 (E), ZR-75-1 (F), and JIMT-1 (G) cells were employed rather than HEK293 cells.
To study the impact of SGK3-PROTAC1 on phosphorylation of a physiological substrate, we monitored phosphorylation of NDRG1 at Thr346.[37] This site is also phosphorylated by Akt; therefore we treated cells with increasing doses of SGK3-PROTAC1 and cisSGK3-PROTAC1 for 8 h, with the addition of an Akt inhibitor (3 μM AZD5363) 1 h before lysis, to remove the impact of Akt phosphorylation of NDRG1. […] Concentrations of cisSGK3-PROTAC1 of above 1 μM were required to lower NDRG1 phosphorylation. […] This is consistent with previous work in HEK293 cells showing that inhibition of both Akt and SGK3 is required to block NDRG1 phosphorylation.[8],[37]
All cell treatments were carried out as described in figure legends, to a final DMSO concentration of 0.1% (v/v). Lysates were quantified. Immunoblotting was performed using standard procedures, described in brief below. Lysate concentration was quantified by Bradford Assay, and 10 μg of lysate was loaded in the LDS sample buffer for SDS-PAGE electrophoresis on Novex 4–12% Bis–Tris gels. Proteins were electrophoretically transferred onto nitrocellulose membranes (Amersham Protran 0.45 μm NC; GE Healthcare) at 80 V for 80 min on ice in transfer buffer. Transferred membranes were blocked with 5% (w/v) nonfat dry milk dissolved in TBS-T [20 mM Tris/HCl, pH 7.5, 150 mM NaCl, and 0.1% (v/v) Tween 20] at RT for 30 min, before incubation with the primary antibody overnight at 4 °C. The signal was produced with near-infrared secondary antibodies and detected using a Licor Biosciences Odyssey System, and the signal was quantified in Image Studio Lite.

Where [2] appears, read: 0.3 μM SGK3-PROTAC1, 1 μM 14H, 1 μM 308-R.
Setting [3] is: in the presence of 3 μM AZD5363, 0.3 μM SGK3-PROTAC1, 1 μM 14H, 1 μM 308-R.
Where [4] appears, read: 0.1 μM, 3 μM AZD5363 1 h before lysis.

Where two headings read alike, the source gives them in different places.

`COc1ccc(Cl)c(S(=O)(=O)Nc2ccc(-c3nc(OC[C@H]4CNCCO4)c4c(C)n[nH]c4n3)cc2)c1` [290-R, reference compound]: the remaining activity at 1 µM came to 94% at CDK2-Cyclin A, 111% on p38 alpha MAPK and 110% on OSR1.
With `Cc1ccc(F)c(S(=O)(=O)Nc2ccc(-c3nc(OC[C@H]4CNCCO4)c4cn[nH]c4n3)cc2)c1` [308-R, reference compound], the pNDRG1 phosphorylation result in assay [1] (setting [2]) is recorded as “minimal effect”. In addition, the NDRG1 phosphorylation result in assay [1] (setting [3]) was “markedly suppressed”. Besides, the remaining activity at 1 µM on CDK2-Cyclin A was found to be 61%; at p38 alpha MAPK it was 88%; on OSR1 it was 75%.
As for `Cc1ccc(F)c(S(=O)(=O)Nc2ccc(-c3nc(OC[C@H]4CN(CCCCCCOCCOCCOCC(=O)N[C@H](C(=O)N5C[C@H](O)C[C@H]5C(=O)NCc5ccc(-c6scnc6C)cc5)C(C)(C)C)CCO4)c4cn[nH]c4n3)cc2)c1` [SGK3-PROTAC1], the NDRG1 phosphorylation result is “reduced NDRG1 phosphorylation” in assay [1] (setting [4]) and “markedly suppressed” in assay [1] (setting [3]). Further, the pNDRG1 phosphorylation entry in assay [1] (setting [2]) is reported as “minimal effect”. The remaining activity at 1 µM worked out at 101% at CDK2-Cyclin A (1 µM), 125% on p38 alpha MAPK (1 µM) and 103% at OSR1 (1 µM).
In the case of `Cc1ccc(F)c(S(=O)(=O)Nc2ccc(-c3nc(OC[C@H]4CN(CCCCCCOCCOCCOCC(=O)N[C@H](C(=O)N5C[C@@H](O)C[C@H]5C(=O)NCc5ccc(-c6scnc6C)cc5)C(C)(C)C)CCO4)c4cn[nH]c4n3)cc2)c1` [cisSGK3-PROTAC1], the NDRG1 phosphorylation entry in assay [1] (setting [4]) is reported as “no effect”. Further, in assay [1] (3 μM AZD5363 1 h before lysis), the “concentration required to lower NDRG1 phosphorylation” value is “above 1 μM”. The remaining activity at 1 µM at CDK2-Cyclin A (1 µM) came to 103%; at p38 alpha MAPK (1 µM), 109%; at OSR1 (1 µM) it was 118%.

The values above are taken from PMC6757289, “Design and Characterization of SGK3-PROTAC1, an Isoform Specific SGK3 Kinase PROTAC Degrader” (ACS Chemical Biology, 2019).
